Assays:
Rolling Mouse Nagoya [1] = assay: Experiment 1: effect of improving ataxia on Rolling Mouse Nagoya (fall index, open-field method); format: in vivo; conditions: for effect on improvement of ataxia (fall index): 1 hour after administration, FIG. 1
Description: Experiment 1 Effect of improving ataxia on Rolling Mouse Nagoya
Rolling Mouse Nagoya, a hereditary ataxia mouse, is known as a model mouse for spinocerebellar ataxia and has been reported in many papers (E. Kurihara, N. Fukuda, S. Narumi, T. Matsuo, S. Saji, and Y. Nagawa, Jpn. Pharmacol., Ther., 13, 49-56 (1985), Y. Mano, K. Matsui, E. Toyoshima, and K. Ando, Acta. Neurol. Scand., 73, 352-358 (1986), K. Kinoshita, T. Fujitsuka, M. Yamamura, and Y. Matsuoka, Eur. J. Pharmacol., 274, 65-72 (1995), K. Kinoshita, T. Fukushima, Y, Kodama, J. Sugihara, M. Yamamura, and Y. Matsuoka, Biol. Pharm. Bull., 20, 36-39 (1997)).
Effect of Compound (I-1) for ataxia of Rolling Mouse Nagoya was investigated. The following compounds in Patent Literature 1 and Non-Patent Literature 1 were used as Control Compounds 1 and 2.
An effect on improvement of ataxia was evaluated with a fall index by an open-field method. Mice were left in the center of an open-field (circle open-field, 75 cm in a diameter, 25 divisions). Number of divisions passed and numbers of falls for 5 minutes were counted, and a fall index (numbers of falls/number of divisions passed) was calculated.
Each of the compounds was dissolved in a physiological saline on the day of the experiment. Each compound was orally administered to mice using a sonde for oral administration at the following dosage; Compound (I-1): 1 mg/kg and 3 mg/kg, Control Compound 1: 30 mg/kg and 100 mg/kg, Control Compound 2: 100 mg/kg and 300 mg/kg. Physiological saline alone was administered to mice as a control group. Volume for oral administration was 0.2 mL per 20 g body weight of a mouse.
Effect on improvement of ataxia for each mouse was evaluated 1 hour after administration by the open-field method. Sample numbers were 5 or more in every group.

[2] = system: cerebellum-injured rat by administration of Ara-C; assay: Experiment 2: effect of improving ataxia on cerebellum-injured rat by administration of Ara-C (fall index, open-field method); format: in vivo, Sprauge-Dawley rats; conditions: for effect on improvement of ataxia (fall index): oral once a day for seven days, 24 hours after final administration, FIG. 2; for dosage ratio giving the same level efficacy versus Compound (I-1): oral, repeated administration
Description: Experiment 2 Effect of improving ataxia on cerebellum-injured rat by administration of Ara-C
Ara-C (60 mg/kg, Nippon Shinyaku) was subcutaneously administered to Sprauge-Dawley rats (CLEA Japan, Inc) of 2 days old and 3 days old, and the effects of improving ataxia on Compound (I-1), Control Compound 1 and Control Compound 2 at 4 weeks old were investigated.
The effect of improving on ataxia was evaluated with a fall index by an open-field method. Rats were left in the center of an open-filed (circle open-filed, 75 cm in a diameter, 25 divisions), number of divisions passed and numbers of falls for 3 minutes were counted, and a fall index (numbers of falls/number of divisions passed) was calculated.
Each of the compounds was dissolved in a physiological saline on the day of administration. Each compound was orally administered to rats using a sonde for oral administration at the following dosage; Compound (I-1): 0.1 mg/kg, 0.3 mg/kg, 1 mg/kg and 3 mg/kg, Control Compound 1: 30 mg/kg and 100 mg/kg, Control Compound 2: 100 mg/kg and 300 mg/kg. Physiological saline alone was administered to rats as a control group. The compounds were repetitively orally administered one a day for seven days and the effect was investigated 24 hours after the final administration. Volume for oral administration was 0.1 mL per 100 g body weight of a rat. Sample numbers were 5 or more in every group.

Rolling Mouse Nagoya [3] = assay: Experiment 3: effect of improving ataxia on Rolling Mouse Nagoya (fall index, square open-field); format: in vivo; conditions: oral 100 mg/kg, 1 hour after administration, FIG. 3
Description: Experiment 3 Effect of improving ataxia on Rolling Mouse Nagoya
Effects of the compounds described in Patent Literature 8 (I-3: R=CN, I-1: R=CONH2) and Control Compound 2 on ataxia on Rolling Mouse Nagoya were investigated.
The effect on ataxia was evaluated with a fall index by an open-field method. Mice were left in the center of an open-field (square open-field, 100 cm×100 cm, divided into 25 squares of 20 cm×20 cm), number of squares passed and numbers of falls for 10 minutes were counted, and a fall index (numbers of falls/number of squares passed) was calculated.
Each of the compounds was dissolved in a physiological saline on the day of the experiment. Each compound was orally administered to mice using a sonde for oral administration at the following dosage; Compounds (I-3) and (I-4): 10 mg/kg, Control Compound 2: 100 mg/kg. Volume for oral administration was 0.2 mL per 20 g body weight of a mouse.
Each of the test compound was orally administered just after a fall index of each mouse in the open-field was calculated. A fall index was calculated again 1 hour after administration and the effect of improving ataxia was evaluated. Sample numbers were 5 or more in every group.

[4] = oral, comparison of effective doses

Row | Compound | effect on improvement of ataxia (fall index) (Rolling Mouse Nagoya [1]; oral 3 mg/kg) | effect of improving ataxia relative to Control Compound 1 (Rolling Mouse Nagoya [1]; [4]) | effect of improving ataxia relative to Control Compound 2 (Rolling Mouse Nagoya [1]; [4]) | effect on improvement of ataxia (fall index) ([2]; 0.3 mg/kg or more) | effect on improvement of ataxia (fall index) (Rolling Mouse Nagoya [1]; oral, only at 100 mg/kg (30 and 100 mg/kg tested)) | effect on improvement of ataxia (fall index) ([2]; only at 100 mg/kg (30 and 100 mg/kg tested)) | dosage ratio giving the same level efficacy versus Compound (I-1) [2] | effect on improvement of ataxia (fall index) (Rolling Mouse Nagoya [1]; oral, even at 300 mg/kg (100 and 300 mg/kg tested)) | effect on improvement of ataxia (fall index) ([2]; even at 300 mg/kg) | effect of improving ataxia (fall index before vs after administration) (Rolling Mouse Nagoya [3])
1 | C[C@@H]1OC(=O)N[C@@H]1C(=O)N[C@@H](Cc1cscn1)C(=O)N1CCC[C@H]1C.O.O.O [Compound (I-1)] | superior effect on improvement of ataxia | ≥ 30 times | ≥ 100 times | superior effect on improvement of ataxia to Control Compounds |  |  |  |  |  | 
2 | CN1C(=O)C[C@H](C(=O)N[C@H](Cc2c[nH]cn2)C(=O)N2CCC[C@@H]2C(N)=O)NC1=O [Control Compound 1] |  |  |  |  | superior effect of improving ataxia to that in a control group | superior effect on improvement of ataxia in comparison of a control group | 1/300 |  |  | 
3 | NC(=O)[C@H]1CCCN1C(=O)[C@@H](Cc1c[nH]cn1)NC(=O)[C@@H]1CCC(=O)N1 [Control Compound 2] |  |  |  |  |  |  | 1/1000 | does not show the improvement effect | does not show the improvement effect | weak improvement effect

— patent publication US8071633B2, “Pharmaceutical composition for treating spinocerebellar ataxia” (Shionogi & Co., Ltd., priority 2004, dated 2011)
